From PubChem BioAssay (NCI)
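Dose response: 5 concentrations. Exposure: 48 h. Format: 96-well plates. Endpoint: linear interpolation; highest concentration if not reached. Abbreviation: GI50, concentration required for 50% inhibition of growth. Definition used: TGI = concentration required for complete inhibition of growth.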

Key:
Assay in all cases: NCI anticancer screen, dose series, 48 h
786-0 renal = system: 786-0 renal
HT29 colon = system: HT29 colon
MCF7 breast = system: MCF7 breast
MDA-MB-231 breast = system: MDA-MB-231 breast
NCI-H226 lung = system: NCI-H226 lung
NCI-H522 lung = system: NCI-H522 lung
NCI/ADR-RES ovarian = system: NCI/ADR-RES ovarian
OVCAR-4 ovarian = system: OVCAR-4 ovarian
OVCAR-5 ovarian = system: OVCAR-5 ovarian
RPMI-8226 leukemia = system: RPMI-8226 leukemia
SW-620 colon = system: SW-620 colon
TK-10 renal = system: TK-10 renal

SMILES | TGI (786-0 renal) [µM] | TGI (HT29 colon) [µM] | TGI (MCF7 breast) [µM] | TGI (MDA-MB-231 breast) [µM] | TGI (NCI-H226 lung) [µM] | TGI (NCI-H522 lung) [µM] | TGI (NCI/ADR-RES ovarian) [µM] | TGI (OVCAR-4 ovarian) [µM] | TGI (OVCAR-5 ovarian) [µM] | TGI (RPMI-8226 leukemia) [µM] | TGI (SW-620 colon) [µM] | TGI (TK-10 renal) [µM] | GI50 (HT29 colon) [µM] | GI50 (NCI-H226 lung) [µM] | GI50 (NCI-H522 lung) [µM] | GI50 (OVCAR-4 ovarian) [µM] | GI50 (RPMI-8226 leukemia) [µM]
CN(C)c1ccc(C(c2ccc(N(C)C)cc2)c2ccc([N+](=O)[O-])cc2)cc1 | > 100 | > 100 | > 100 | > 100 | > 100 | > 100 | > 100 | > 100 | > 100 | > 100 | > 100 | > 100 | – | – | – | – | –
NS(=O)(=O)c1ccc(/C=C/c2cccc(O)c2)cc1 | > 100 | > 100 | > 100 | > 100 | 74.3 | 44.4 | > 100 | > 100 | > 100 | 57.7 | > 100 | 93.7 | 43.3 | 25.8 | 12.2 | 27.8 | 18.9
NC1CCC(c2cc3ccccc3s2)(N2CCCCC2)CC1 (centres undefined) | 2.83 | 2.45 | 3.05 | 12.9 | 43.7 | 4.15 | 2.42 | 15.2 | 6.23 | 2.28 | 3.2 | 19 | – | – | – | – | –
CC1=C(C#N)S(=O)(=O)c2c(oc(C)c2C)N1 | > 100 | > 100 | > 100 | > 100 | > 100 | > 100 | > 100 | > 100 | > 100 | > 100 | > 100 | > 100 | – | – | – | – | –
COc1ccc2c(c1)CC[C@@H]1[C@@H]2CC[C@]2(C)/C(=N/OCCN3CCCCC3)CC[C@@H]12 | 3.41 | 3.67 | 21.8 | 23.6 | 18.7 | 18.9 | 24.2 | 27.2 | 16.6 | 6.35 | 20.3 | 14.4 | – | – | – | – | –
COc1ccc(CNc2nc3ccccc3nc2-c2cccs2)cc1 | > 100 | > 100 | > 100 | > 100 | > 100 | > 100 | > 100 | > 100 | > 100 | > 100 | > 100 | > 100 | – | – | – | – | –
CCOC(=O)/C(=C\c1ccc(CO)o1)P(=O)(OCC)OCC | 45.3 | > 100 | > 100 | 93.5 | > 100 | 15.4 | > 100 | 35.9 | > 100 | 91.4 | 60.9 | > 100 | – | – | – | – | –
CC(=O)Oc1ccc2c(c1)CC[C@@H]1C2[C@@H](O[N+](=O)[O-])C[C@@]2(C)C1CC[C@@H]2O (some centres undefined) | > 100 | > 76.6 | > 90.3 | > 100 | > 100 | > 86.7 | 97.3 | > 100 | > 71.8 | 69.7 | > 100 | > 100 | – | – | – | – | –
OC1CN=C2c3ccccc3C(O)(c3ccc(Cl)cc3)N2C1 (centres undefined) | > 100 | > 100 | > 100 | > 100 | > 100 | > 100 | > 100 | > 100 | > 100 | > 100 | > 100 | 65.7 | – | – | – | – | –
O=C(CSC1=NCCN1)c1ccccc1 | > 100 | > 100 | > 100 | > 100 | > 100 | > 100 | > 100 | > 100 | > 100 | > 100 | > 100 | > 100 | – | – | – | – | –
COc1ccc(CN=CN/C(C#N)=C(\N)C#N)cc1OC | > 100 | > 100 | > 100 | > 100 | > 100 | > 100 | > 100 | > 100 | > 100 | > 100 | > 100 | > 100 | – | – | – | – | –
Cn1c2ccccc2n2c3nc4ccccc4nc3c(C#N)c12 | > 100 | > 100 | > 100 | > 100 | > 100 | > 96.6 | > 100 | > 100 | > 100 | > 100 | > 100 | > 100 | – | – | – | – | –
Fc1cccc2nc(-c3ccccc3)cc(OCc3ccccc3)c12 | > 100 | > 100 | > 100 | > 100 | > 100 | > 100 | > 100 | > 100 | > 100 | > 100 | > 100 | > 100 | – | – | – | – | –
CC1(C)N=C(N)N=C(N)N1c1cccc(CSc2ccccc2)c1 | > 100 | > 100 | > 100 | > 100 | > 100 | 27.3 | > 100 | > 100 | > 100 | > 100 | > 100 | > 100 | – | – | – | – | –
Cc1nc2ccccc2n1CCc1nc2ccccc2s1 | > 100 | > 100 | > 100 | > 100 | 42.9 | > 100 | > 100 | > 100 | > 100 | > 100 | > 100 | > 100 | – | – | – | – | –
O=c1[nH]cnc2c1ncn2[C@H]1CO[C@@H](CO)[C@@H]1O | > 100 | > 100 | > 100 | > 100 | > 100 | > 100 | > 100 | > 100 | > 100 | > 100 | > 100 | > 100 | – | – | – | – | –
CN(C)CCOc1ccc(-c2c(Oc3ccc(Cl)cc3)c(=O)oc3ccccc23)cc1 | > 27.9 | > 38.7 | > 28.3 | 22.4 | > 53.9 | 20.9 | > 52.1 | 28.1 | 35.7 | 43.6 | > 62 | 29.9 | – | – | – | – | –
